Assay results taken from ChEMBL document CHEMBL1142840, “4-Phenylcoumarins as HIV transcription inhibitors” (Bioorg Med Chem Lett, 2005).

What was measured:
[1] = Anti-HIV activity (at 50 uM) against Jurkat-derived 5.1 cell line stably transfected with HIV-LTR activated by TNF alpha; assay type: functional
[2] = system: HeLa; assay: Anti-HIV activity (at 50 uM) against human HeLa cells through a HeLa-Tet-ON assay; U= unspecific; assay type: functional, cell-based
[3] = system: MT2; assay: Toxicity of compound against human MT-2 cell line at the concentration of 50 uM; assay type: functional
[4] = system: HeLa; assay: Anti-HIV activity (at 50 uM) against human HeLa-Tat-Luc cells transfected with HIV-1 LTR activated by Tat protein; assay type: functional
[5] = target: Human immunodeficiency virus type 1 reverse transcriptase (Human immunodeficiency virus 1, UniProt Q72547); assay: Inhibitory concentration against recombinant human immunodeficiency virus 1 reverse transcriptase
[6] = system: HeLa; assay: Anti-HIV activity (at 25 uM) against human HeLa-Tat-Luc cells transfected with HIV-1 LTR activated by Tat protein; assay type: functional
[7] = system: HeLa; assay: Anti-HIV activity (at 50 uM) against human HeLa cells through a HeLa-Tet-ON assay; S= specific; assay type: functional, cell-based
[8] = Anti-HIV activity (at 25 uM) against Jurkat-derived 5.1 cell line stably transfected with HIV-LTR activated by TNF alpha; assay type: functional
[9] = system: HeLa; assay: Anti-HIV activity (at 50 uM) against human HeLa cells through a HeLa-Tet-ON assay; U= specific; assay type: functional, cell-based

Row | Structure (SMILES) | inhibition at 50 µM [1] [%] | inhibition [2] | Cell death [3] [%] | inhibition at 50 µM [4] [%] | IC50 [5] [µM] | inhibition at 25 µM [6] [%] | inhibition [7] | inhibition at 25 µM [8] [%] | inhibition [9] | Inhibition [8] [%]
1 | CCC(C)C(=O)c1c(O)c(CC=C(C)C)c2oc(=O)cc(-c3ccccc3)c2c1O (stereo not drawn) | 85.2 | Unspecific | 28.8 | 86.7 |  |  |  |  |  | 
2 | COc1c(C(=O)CC(C)C)c(O)c(CC=C(C)C)c2oc(=O)cc(-c3ccccc3)c12 | 43.6 |  | 4.8 | 13.5 | 22.2 |  |  |  |  | 
3 | CC(C)=C(O)Cc1c(O)c(C(=O)CC(C)C)c(O)c2c(-c3ccccc3)cc(=O)oc12 | 53.1 |  | 18.5 | 70.4 | 0.5 | 43.6 | Specific | 55.4 |  | 
4 | CC(C)=CCc1c(O)cc(O)c2c(-c3ccccc3)cc(=O)oc12 | 84.5 |  | 34.4 | 15.4 | 11.2 |  |  | 33.4 |  | 
5 | CC(C)=CCc1c(O)c(C(O)CC(C)C)c(O)c2c(-c3ccccc3)cc(=O)oc12 (stereo not drawn) | 60 | Unspecific | 8 | 47.6 |  |  |  |  |  | 
6 | CC1CN(C2CC(N=[N+]=[N-])[C@@H](CO)C2)C(=O)NC1=O (stereo partly drawn) |  |  | >100 |  | 0.01 |  |  |  |  | 
7 | CC(C)CC(=O)c1c2c(c3oc(=O)cc(-c4ccccc4)c3c1O)C[C@@H](C(C)(C)O)O2 [CYCLOMAMMEISIN] | 86.3 | Unspecific | 34.1 | 22 |  |  |  | 66.9 |  | 
8 | CC(C)CC(=O)c1c(O)cc(O)c2c(-c3ccccc3)cc(=O)oc12 [ISODISPAR B] | 85.6 |  | 17.2 | 69.4 | 6.9 | 42 | Specific | 81 |  | 
9 | CC(C)=CCc1c(O)c(C(=O)C(C)C)c2oc(=O)cc(-c3ccccc3)c2c1O [ISOMESUOL] | 67.1 |  | 11.5 | 34.3 | 31.9 | 36.7 | Specific | 67 |  | 
10 | CC(C)CC(=O)c1c2c(c3oc(=O)cc(-c4ccccc4)c3c1O)C=CC(C)(C)O2 [MAMMEIGIN] | 15.7 |  | 4.7 | 3 | 124 | 2 |  | 5.9 |  | 
11 | CC(=O)Oc1c(C(=O)CC(C)C)c(OC(C)=O)c2c(-c3ccccc3)cc(=O)oc2c1CC=C(C)C [MAMMEISIN DIACETATE] | 81.1 | Unspecific | 15.7 | 50.4 |  |  |  |  |  | 
12 | CC(C)=CCc1c(O)c(C(=O)CC(C)C)c(O)c2c(-c3ccccc3)cc(=O)oc12 [MAMMEISIN] | 58.8 | Unspecific | 16.6 | 53.1 |  |  |  |  |  | 
13 | CC(C)C(=O)c1c2c(c3oc(=O)cc(-c4ccccc4)c3c1O)C=CC(C)(C)O2 [MESUAGIN] | 20.2 |  | 4.5 | 0 | 32.1 | 0 |  | 10.8 |  | 
14 | CC(C)C(=O)c1c2c(c3oc(=O)cc(-c4ccccc4)c3c1O)C[C@@H](C(C)(C)O)O2 [MESUOL CYCLO F] | 59.4 | Unspecific | 79.5 | 59.5 |  |  |  |  |  | 
15 | CC(C)=CCc1c(O)c(C(=O)C(C)C)c(O)c2c(-c3ccccc3)cc(=O)oc12 [MESUOL] | 77.9 | Unspecific | 22.5 | 71.3 | 2.5 | 11.5 |  | 67.1 | Specific | 71
